From patent US20030055065A1, “Tricyclic amide and urea compounds useful for inhibition of G-protein function and for treatment of proliferative diseases” (priority 1993, published 2003) come the findings set out here.

The subject of assay [1] is Ras-CVLS processing in COS monkey kidney cells. Kind of assay: COS cell assay: Ras-CVLS processing (Western blot). Format: cell-based. As to conditions: Primates, COS. Put shortly: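 COS cells electroporated with Ras-CVLS (farnesyl transferase substrate) cDNA, with drug-containing fresh medium added at 24 h and cells examined at 48 h. TCA-precipitated cellular protein was resolved by SDS gel and immunoblotted with anti-p21 Ras monoclonal and HRP anti-rat IgG to monitor Ras processing.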

Assay [2] relates to Ras-CVLL processing in COS monkey kidney cells. Kind of assay: COS cell assay: Ras-CVLL processing (geranylgeranylation). Format: cell-based. The conditions noted are these: concentrations up to 20 μg/mL. An excerpt:
(§1) 2. Cell-Based Assay: Transient expression of val^12-Ha-Ras-CVLS and val^12-Ha-Ras-CVLL in COS monkey kidney cells: Effect of farnesyl protein transferase inhibitors on Ras processing and on disordered cell growth induced by transforming Ras.
COS monkey kidney cells were transfected by electroporation with the plasmid pSV-SPORT (Gibco/BRL) containing a cDNA insert encoding either Ras-CVLS or Ras-CVLL, leading to transient overexpression of a Ras substrate for either farnesyl protein transferase or geranylgeranyl protein transferase I, respectively (see above). […]
Membranes were blocked by incubation overnight at 4° C. in PBS containing 2.5% dried milk and 0.5% Tween-20 and then incubated with a Ras-specific monoclonal antibody, Y13-259 (Furth, M. E., et al., (1982), Monoclonal antibodies to the p21 products of the transforming gene of Harvey murine sarcome virus and of the cellular ras gene family, J. Virol. 43: 294-304), in PBS containing 1% fetal calf serum for one hour at room temperature. […] The presence of processed and unprocessed Ras-CVLS or Ras-CVLL was detected using a colorimetric peroxidase reagent (4-chloro-1-naphthol) as described by the manufacturer (Bio-Rad).

Assay [3] has as its system T24-BAG4 human bladder carcinoma cells expressing an activated H-ras gene. Kind of assay: Cell Mat Assay: tumor cell colony inhibition (tIC50). Format: cell-based. The conditions noted are these: Homo sapiens, inhibition of tumor cell growth. Put shortly: (§2)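 Serial compound dilutions added 24 h after planting T24-BAG4 cells onto a mat of normal cells, then 14 d colony growth; monolayers glutaraldehyde-fixed and tumor cells X-Gal stained. tIC50 and mIC50 from microscope counts of colonies, cells per colony and mat cell density.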

Assay [4] relates to COS monkey kidney cells expressing val12-Ha-Ras-CVLS. Description: COS cell assay: disordered cell growth / morphological changes induced by Ras-CVLS. It counts as cell-based.
Source text: as §1
(§3) COS monkey kidney cells were transfected by electroporation with the plasmid pSV-SPORT (Gibco/BRL) containing a cDNA insert encoding either Ras-CVLS or Ras-CVLL, leading to transient overexpression of a Ras substrate for either farnesyl protein transferase or geranylgeranyl protein transferase I, respectively (see above).
(§4) Following electroporation, cells were plated into 6-well tissue culture dishes containing 1.5 ml of Dulbecco's-modified Eagle's media (GIBCO, Inc.) supplemented with 10% fetal calf serum and the appropriate farnesyl protein transferase inhibitors. After 24 hours, media was removed and fresh media containing the appropriate drugs was re-added.
(§5) 48 hours after electroporation cells were examined under the microscope to monitor disordered cell growth induced by transforming Ras. Cells expressing transforming Ras become more rounded and refractile and overgrow the monolayer, reminiscent of the transformed phenotype. […]

The test system of assay [5] is COS monkey kidney cells expressing val12-Ha-Ras-CVLL. Description: COS cell assay: disordered cell growth / morphological changes induced by Ras-CVLL. The conditions noted are these: 20 μg/mL. It counts as cell-based.
Source text: as §1, §3, §4, §5

The target of assay [6] is T1, geranylgeranyl protein transferase (GGPT) I (Rattus norvegicus, UniProt P53610+Q04631).
T1 construct: were partially purified from rat brain by ammonium sulfate fractionation followed by Q-Sepharose
T1 sequence (P53610 whole entry, one chain of several): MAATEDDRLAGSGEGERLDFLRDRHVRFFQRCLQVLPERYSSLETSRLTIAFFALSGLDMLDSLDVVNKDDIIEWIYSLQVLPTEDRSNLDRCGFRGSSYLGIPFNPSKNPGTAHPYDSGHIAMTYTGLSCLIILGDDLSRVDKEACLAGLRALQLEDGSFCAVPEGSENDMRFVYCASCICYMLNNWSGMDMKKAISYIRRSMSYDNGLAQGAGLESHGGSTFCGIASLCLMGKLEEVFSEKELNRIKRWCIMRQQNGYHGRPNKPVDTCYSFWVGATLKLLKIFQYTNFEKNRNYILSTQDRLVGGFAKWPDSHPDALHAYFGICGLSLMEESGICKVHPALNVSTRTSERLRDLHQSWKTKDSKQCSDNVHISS
Kind of assay: Inhibition of geranylgeranyl protein transferase I (Ras-CVLL as acceptor). It counts as biochemical. The conditions noted are these: for selective for FPT inhibition (over GGPT): FPT versus GGPT; for IC50: enzyme inhibition. Put shortly:
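Rat brain GGPT I, partially purified by ammonium sulfate fractionation and anion exchange, was assayed with [3H]geranylgeranyl pyrophosphate as isoprenoid donor. The acceptor was E. coli-expressed His6-tagged val12-Ha-Ras ending in CVLL. The protocol otherwise matched the farnesyl protein transferase assay.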

Assay [7] deals with C-f-1 (mouse fibroblast transformed with c-fos oncogene). Description: In vivo anti-tumor study, C-f-1. More on the design: species or system athymic nu/nu female mice; concentration or dose not given beside the values. As to conditions: s.c. tumor C-f-1, BID.
The test system of assay [8] is SW620 (human colon adenocarcinoma [lymph node metastasis]). Description: In vivo anti-tumor study, SW620. The conditions noted are these: for inhibition in vivo at 100 mg/kg: Mus musculus, SW620 tumor, 100 MPK, 10/wk; for percent inhibition of tumor growth relative to vehicle controls: s.c. tumor SW-620, BID. Further details: species or system athymic nu/nu female mice; percent inhibition of tumor growth relative to vehicle controls: concentration or dose not given beside the values.

In assay [9] the test system is A431 (human epidermal carcinoma). Kind of assay: In vivo anti-tumor study, A431. The conditions noted are these: s.c. tumor A431, BID, 1-5, ×4. Further details: species or system athymic nu/nu female mice; concentration or dose not given beside the values.
The subject of assay [10] is M27 (mouse Lewis lung carcinoma). Description: In vivo anti-tumor study, M27. More on the design: species or system athymic nu/nu female mice. The conditions noted are these: po; for Average % Tumor Inhibition: M27 tumor, 100 MPK, 14/wk, x4; for percent inhibition of tumor growth relative to vehicle controls: s.c. tumor M27, BID, 1-7, ×4. An excerpt:
In vivo Anti-tumor Studies

Assay [11] deals with Normal human HEPM fibroblasts. Kind of assay: Cell Mat Assay: density of mat cells (mIC50). Format: cell-based. As to conditions: Homo sapiens, Fibroblast. Put shortly:
as §2

The target in assay [12] is T2, farnesyl protein transferase (FPT), partially purified from rat brain (Rattus norvegicus, UniProt Q02293+Q04631).
T2 construct: were partially purified from rat brain by ammonium sulfate fractionation followed by Q-Sepharose
T2 sequence (Q02293 whole entry, one chain of several): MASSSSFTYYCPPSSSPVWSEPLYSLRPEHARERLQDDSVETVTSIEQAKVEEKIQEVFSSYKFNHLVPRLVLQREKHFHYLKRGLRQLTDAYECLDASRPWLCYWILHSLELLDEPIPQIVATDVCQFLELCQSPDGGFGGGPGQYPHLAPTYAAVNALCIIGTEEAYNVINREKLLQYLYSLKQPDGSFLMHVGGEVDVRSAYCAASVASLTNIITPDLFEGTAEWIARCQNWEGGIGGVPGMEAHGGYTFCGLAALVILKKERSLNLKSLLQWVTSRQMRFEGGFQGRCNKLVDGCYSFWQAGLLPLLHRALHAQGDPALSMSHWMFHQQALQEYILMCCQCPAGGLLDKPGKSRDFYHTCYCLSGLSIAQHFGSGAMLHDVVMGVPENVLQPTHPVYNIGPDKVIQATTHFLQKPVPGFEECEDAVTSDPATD
Kind of assay: Inhibition of farnesyl protein transferase (transfer of [3H]farnesyl to Ras-CVLS). It counts as biochemical. As to conditions: read-out: FPT IC50. Put shortly: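 Transfer of [3H]farnesyl onto E. coli-expressed, His6-tagged Ras-CVLS was measured after 30 min at room temperature. Radiolabelled Ras was TCA-precipitated on ice and filter-harvested, and inhibition was expressed as percent of DMSO control.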

Where [13] appears, read: COS cells, read-out: Inhibition of Ras Processing IC50.
Where [14] appears, read: Ras-CVLS farnesylation, partially purified rat brain FPT.

Molecules are shown by their SMILES. “And” between values parts separate entries of the source, which are not always exact repeats. Equal entries are not always repeated. Where two headings read alike, the source gives them in different places.

A word on the IC50: it is the concentration at which inhibition is half-maximal. Broadly, the inhibition is how much of the control response was suppressed. The inhibition in vivo is the change of the read-out against control, counted positive when it falls.

Regarding `O=C(Cc1ccncc1)N1CCC(=C2c3ccc(Cl)cc3CCc3cccnc32)CC1` [Example 1, 1-(4-pyridylacetyl)-4-(8-chloro-5,6-dihydro-11H-benzo[5,6]cyclohepta[1,2-b]pyridin-11-ylidene)piperidine], the 50% inhibitory concentration (IC50) in [1] (setting [13]) was 1 µM; in [1] (Ras-transfected COS cells, read-out: Ras-CVLS processing IC50), 1 µM and 0.44 µg/mL; in [3], 3.1 µM. Also, the “geranylgeranylation of Ras-CVLL” value in assay [2] is recorded as “did not block”. Moreover, the “morphological changes induced by Ras-CVLS” value in [4] (at 0.2 or 0.5 μg/mL) is on record as “little effect”; in assay [4] (concentration range of 2 to 20 μg/mL) it was “inhibited the morphological changes induced by Ras-CVLS in a dose-dependent manner”. In assay [5], the “morphological changes induced by Ras-CVLL” value is reported as “did not prevent the morphological changes”.

As for `O=C(Cc1cccnc1)N1CCC(=C2c3ccc(Cl)cc3CCc3cccnc32)CC1` [Example 2, 8-chloro-11-[1-(1-(3-pyridyl)-methylcarbonyl)-4-piperidylidene]-6,11-dihydro-5H-benzo[5,6]cyclohepta[1,2-b]-pyridine], the half-inhibitory concentration (IC50) is 3.7 µM in assay [1] (setting [13]); greater than 46 µM in assay [6]; 25 µM in [3]; greater than 50 µM in assay [11]; 0.47 µM in assay [12] (setting [14]); 0.47 µM in assay [12] (enzyme inhibition). Besides, the “selective for FPT inhibition (over GGPT)” value in assay [6] is “at least 98 fold”. Further, at 46 µM the inhibition in [6] (at 46 μM, Ras-CVLL as isoprenoid acceptor) was 25%. Besides, the “percent inhibition of tumor growth relative to vehicle controls” value in assay [7] (ip, 1-5, ×2) was 8%; in [7] (po, 1-5, ×4), 9.6%; in [8] (ip, 1-5, ×4), 0%; in assay [8] (po, 1-5, ×2), 46.1%; in [8] (po, 1-5, ×4), 33.5%; in [9] (po) it was 45.6% and 36.5%. In assay [10], the “percent inhibition of tumor growth relative to vehicle controls” value is 61.2%. Also, the inhibition in vivo at 100 mg/kg in assay [8] (SW-620, ip, ip, x2) was determined as 0%; in assay [8] (SW-620, po, po, x2), 0%; in [8] (SW-620, po, po, x4), 1%. The “Average % Tumor Inhibition” value in assay [10] was 45%.

On to `O=C(CN1C(=O)c2ccccc2C1=O)N1CCC(=C2c3ccc(Cl)cc3CCc3cccnc32)CC1` [Example 3], for which the IC50 in assay [1] (setting [13]) was greater than 10 µM; in [6], greater than 39 µM; in assay [3], greater than 50 µM; in [11] it was greater than 50 µM; in assay [12] (setting [14]), 0.66 µM; in assay [12] (enzyme inhibition), 0.66 µM. Also, the “selective for FPT inhibition (over GGPT)” value in [6] is “at least 59 fold”. Also, the inhibition at 39 µM in assay [6] (at 39 μM, Ras-CVLL as isoprenoid acceptor) came out at 3%. In addition, the “percent inhibition of tumor growth relative to vehicle controls” value in assay [7] (ip, 1-5, ×2) is listed as 8%; in assay [7] (po, 1-5, ×4), 0%; in [8] (ip, 1-5, ×4), 27%; in assay [8] (po, 1-5, ×2), 15.8%; in assay [9] (ip), 0%; in assay [10], 27.3%.

For the molecule `O=C(c1ccc(O)cc1)N1CCC(=C2c3ccc(Cl)cc3CCc3cccnc32)CC1` [Example 7], the IC50 was greater than 45 µM in [6]; 50 µM in assay [3]; 100 µM in assay [11]; 2.3 µM in [12] (setting [14]); 2.3 µM in assay [12] (enzyme inhibition). In addition, the “percent inhibition of tumor growth relative to vehicle controls” value in [7] (ip, 1-5, ×2) was 39.7%; in assay [7] (po, 1-5, ×4) it was 39.3%; in [8] (ip, 1-5, ×4), 19.6%; in [8] (po, 1-5, ×2) it was 48.6%; in [8] (po, 1-5, ×4) it was 0%; in [9] (ip) it was 0%. The entries for the “percent inhibition of tumor growth relative to vehicle controls” value in assay [9] (po) and in assay [10] were 29.1% and 58.2%, respectively. Further, the inhibition in vivo at 100 mg/kg in [8] (SW-620, po, po, x2) was determined as 13%; in assay [8] (SW-620, po, po, x4) it was 0%. Further, the “Average % Tumor Inhibition” value in [10] is given as 40%.
